Assay results taken from patent publication US12077503B2, “Substituted cyclic amides and their use as herbicides” (FMC CORPORATION, priority 2015, dated 2024).

What was measured:
Format in all cases: in vivo
[1] = test system: wheat (Triticum aestivum); experiment: Test A postemergence; settings: Triticum aestivum, post-emergence, 240 h, postemergence, read-out: Wheat plant response rating; for plant injury at 125 g/ha: 125 g ai/ha, visual injury on 0 to 100 scale (0 no effect, 100 complete control), approx. 10 d; for plant injury at 500 g/ha: 500 g ai/ha, 0 to 100 scale, 0 is no effect, 100 is complete control
Summary of the method: (§1)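 Visual injury, scored on a 0–100 scale relative to untreated controls, was recorded about 10 d after application. Treatments were a preemergence soil spray over planted seeds or a postemergence spray on plants at the one- to two-leaf stage, 2 to 10 cm tall, all in loam soil–sand blend in the greenhouse.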

[2] = test system: ragweed (common ragweed, Ambrosia elatior); experiment: Test A postemergence; settings: Ambrosia artemisiifolia, post-emergence, 240 h, postemergence, read-out: Ragweed plant response rating; for pest or weed control at 125 g/ha: 125 g ai/ha, visual injury on 0 to 100 scale (0 no effect, 100 complete control), approx. 10 d; for pest or weed control at 500 g/ha: 500 g ai/ha, 0 to 100 scale, 0 is no effect, 100 is complete control
Summary of the method: as §1

[3] = test system: giant foxtail (Setaria faberii); experiment: Test A postemergence; settings: Setaria faberi, post-emergence, 240 h, postemergence, read-out: Foxtail, Giant plant response rating; for pest or weed control at 125 g/ha: 125 g ai/ha, visual injury on 0 to 100 scale (0 no effect, 100 complete control), approx. 10 d; for pest or weed control at 500 g/ha: 500 g ai/ha, 0 to 100 scale, 0 is no effect, 100 is complete control
Summary of the method: as §1

corn (Zea mays) = experiment: Test A postemergence; settings: Zea mays, post-emergence, 240 h, postemergence, read-out: Corn plant response rating; for plant injury at 125 g/ha: 125 g ai/ha, visual injury on 0 to 100 scale (0 no effect, 100 complete control), approx. 10 d; for plant injury at 500 g/ha: 500 g ai/ha, 0 to 100 scale, 0 is no effect, 100 is complete control
Summary of the method: as §1

[4] = test system: Galium (catchweed bedstraw, Galium aparine); experiment: Test A postemergence; settings: Galium, post-emergence, 240 h, postemergence, read-out: Galium plant response rating; for pest or weed control at 125 g/ha: 125 g ai/ha, visual injury on 0 to 100 scale (0 no effect, 100 complete control), approx. 10 d; for pest or weed control at 500 g/ha: 500 g ai/ha, 0 to 100 scale, 0 is no effect, 100 is complete control
Summary of the method: as §1

[5] = test system: pigweed (Amaranthus retroflexus); experiment: Test A postemergence; settings: Amaranthus retroflexus, post-emergence, 240 h, postemergence, read-out: Pigweed plant response rating; for pest or weed control at 125 g/ha: 125 g ai/ha, visual injury on 0 to 100 scale (0 no effect, 100 complete control), approx. 10 d; for pest or weed control at 500 g/ha: 500 g ai/ha, 0 to 100 scale, 0 is no effect, 100 is complete control
Summary of the method: as §1

[6] = test system: blackgrass (Alopecurus myosuroides); experiment: Test A postemergence; settings: Alopecurus myosuroides, post-emergence, 240 h, postemergence, read-out: Blackgrass plant response rating; for pest or weed control at 125 g/ha: 125 g ai/ha, visual injury on 0 to 100 scale (0 no effect, 100 complete control), approx. 10 d; for pest or weed control at 500 g/ha: 500 g ai/ha, 0 to 100 scale, 0 is no effect, 100 is complete control
Summary of the method: as §1

Kochia (Kochia scoparia) = experiment: Test A postemergence; settings: Bassia scoparia, post-emergence, 240 h, postemergence, read-out: Kochia plant response rating; for pest or weed control at 125 g/ha: 125 g ai/ha, visual injury on 0 to 100 scale (0 no effect, 100 complete control), approx. 10 d; for pest or weed control at 500 g/ha: 500 g ai/ha, 0 to 100 scale, 0 is no effect, 100 is complete control
Summary of the method: as §1

[7] = test system: ryegrass, Italian (Italian ryegrass, Lolium multiflorum); experiment: Test A postemergence; settings: Lolium multiflorum, post-emergence, 240 h, postemergence, read-out: Ryegrass, Italian plant response rating; for pest or weed control at 125 g/ha: 125 g ai/ha, visual injury on 0 to 100 scale (0 no effect, 100 complete control), approx. 10 d; for pest or weed control at 500 g/ha: 500 g ai/ha, 0 to 100 scale, 0 is no effect, 100 is complete control
Summary of the method: as §1

[8] = test system: barnyardgrass (Echinochloa crus-galli); experiment: Test A postemergence; settings: Echinochloa crus-galli, post-emergence, 240 h, postemergence, read-out: Barnyardgrass plant response rating; for pest or weed control at 125 g/ha: 125 g ai/ha, visual injury on 0 to 100 scale (0 no effect, 100 complete control), approx. 10 d; for pest or weed control at 500 g/ha: 500 g ai/ha, 0 to 100 scale, 0 is no effect, 100 is complete control
Summary of the method: as §1

[9] = test system: ragweed (common ragweed, Ambrosia elatior); experiment: Test A preemergence; settings: Ambrosia artemisiifolia, pre-emergence, 240 h, preemergence, 0 to 100 scale where 0 is no effect and 100 is complete control, read-out: Ragweed plant response rating; for pest or weed control at 125 g/ha: 125 g ai/ha, approx. 10 d; for pest or weed control at 500 g/ha: 500 g ai/ha
Summary of the method: as §1

rice (Oryra sativa) = experiment: Test B flooded paddy test; settings: Oryza sativa, 250 g ai/ha, Flood; 0 to 100 scale where 0 is no effect and 100 is complete control; read-out: Rice plant response rating
Summary of the method: (§2)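 Visual ratings (0 none to 100 complete control) are relative to untreated plants, taken 13–15 d after treatment in a greenhouse. Test material went straight into floodwater standing 3 cm above the soil, kept constant, on plants at the 2-leaf stage.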

[10] = test system: sedge, umbrella (small-flower umbrella sedge, Cyperus difformis); experiment: Test B flooded paddy test; settings: Cyperus difformis, 250 g ai/ha, Flood; 0 to 100 scale where 0 is no effect and 100 is complete control; read-out: Sedge, Umbrella plant response rating
Summary of the method: as §2

[11] = test system: ducksalad (Heteranthera limosa); experiment: Test B flooded paddy test; settings: Heteranthera limosa, 250 g ai/ha, Flood; 0 to 100 scale where 0 is no effect and 100 is complete control; read-out: Ducksalad plant response rating
Summary of the method: as §2

[12] = test system: barnyardgrass (Echinochloa crus-galli); experiment: Test B flooded paddy test; settings: Echinochloa crus-galli, 250 g ai/ha, Flood; 0 to 100 scale where 0 is no effect and 100 is complete control; read-out: Barnyardgrass plant response rating
Summary of the method: as §2

SMILES | plant injury at 125 g/ha [1] | plant injury at 500 g/ha [1] | pest or weed control at 125 g/ha [2] | pest or weed control at 500 g/ha [2] | pest or weed control at 125 g/ha [3] | pest or weed control at 500 g/ha [3] | plant injury at 125 g/ha (corn (Zea mays)) | plant injury at 500 g/ha (corn (Zea mays)) | pest or weed control at 125 g/ha [4] | pest or weed control at 500 g/ha [4] | pest or weed control at 125 g/ha [5] | pest or weed control at 500 g/ha [5] | pest or weed control at 125 g/ha [6] | pest or weed control at 500 g/ha [6] | pest or weed control at 125 g/ha (Kochia (Kochia scoparia)) | pest or weed control at 500 g/ha (Kochia (Kochia scoparia)) | pest or weed control at 125 g/ha [7] | pest or weed control at 500 g/ha [7] | pest or weed control at 125 g/ha [8] | pest or weed control at 500 g/ha [8] | other results
CN1C[C@H](c2csc(C(F)F)c2)[C@@H](C(=O)Nc2cccc(F)c2F)C1=O [Compound 1122] | 50% | 70% | 50% | 50% | 80% | 90% | 50% | 90% | 50% | 60% | 20% | 40% | 40% | 60% | 60% | 60% | 30% | 60% | 90% | 90% | pest or weed control at 125 g/ha [9]: 70%; pest or weed control at 500 g/ha [9]: 80%; pest or weed control at 250 g/ha (rice (Oryra sativa)): 25%; pest or weed control at 250 g/ha [10]: 30%; pest or weed control at 250 g/ha [11]: 100%; pest or weed control at 250 g/ha [12]: 70%
CN1C[C@H](c2csc(C(F)F)c2)[C@@H](C(=O)Nc2ccccc2F)C1=O [Compound 1123] | 0% | 60% | 30% | 50% | 90% | 90% | 20% | 80% | 40% | 50% | 0% | 20% | 30% | 80% | 60% | 70% | 30% | 50% | 90% | 90% | pest or weed control at 125 g/ha [9]: 20%; pest or weed control at 500 g/ha [9]: 60%; pest or weed control at 250 g/ha (rice (Oryra sativa)): 25%; pest or weed control at 250 g/ha [10]: 0%; pest or weed control at 250 g/ha [11]: 100%; pest or weed control at 250 g/ha [12]: 70%
CN1CC(c2cccc(/C=C/Cl)c2)C(C(=O)Nc2ccccc2F)C1=O (stereo not shown) [Compound 1129] | 0% | 0% | 0% | 0% | 70% | 90% | 0% | 0% | 0% | 0% | 0% | 0% | 0% | 0% | 0% | 0% | 0% | 0% | 40% | 90% | pest or weed control at 125 g/ha [9]: 0%; pest or weed control at 500 g/ha [9]: 0%; pest or weed control at 250 g/ha (rice (Oryra sativa)): 0%; pest or weed control at 250 g/ha [10]: 0%; pest or weed control at 250 g/ha [11]: 70%; pest or weed control at 250 g/ha [12]: 20%
CN1CC(c2cccc(O)c2)C(C(=O)Nc2cccc(F)c2F)C1=O (stereo not shown) [Compound 1130] | 0% | 0% | 0% | 0% | 0% | 30% | 0% | 0% | 0% | 0% | 0% | 0% | 0% | 0% | 0% | 0% | 0% | 0% | 0% | 20% | pest or weed control at 125 g/ha [9]: 0%; pest or weed control at 500 g/ha [9]: 0%; pest or weed control at 250 g/ha (rice (Oryra sativa)): 0%; pest or weed control at 250 g/ha [10]: 0%; pest or weed control at 250 g/ha [11]: 0%; pest or weed control at 250 g/ha [12]: 0%
O=C1NC[C@H](c2ccc(F)c(OC(F)(F)C(F)F)c2)[C@H]1C(=O)Nc1ccccc1F [Compound 1133] | 60% | 70% | 60% | 70% | 90% | 90% | 50% | 80% | 70% | 70% | 0% | 70% | 30% | 70% | 30% | 70% | 20% | 40% | 80% | 90% | pest or weed control at 125 g/ha [9]: 40%; pest or weed control at 500 g/ha [9]: 60%; pest or weed control at 250 g/ha (rice (Oryra sativa)): 0%; pest or weed control at 250 g/ha [10]: 0%; pest or weed control at 250 g/ha [11]: 85%; pest or weed control at 250 g/ha [12]: 50%
